Measured values taken from ChEMBL document CHEMBL1129716, “Indolizidine derivatives as potential substance P antagonists” (Bioorg Med Chem Lett, 1996).

Biological target: Substance-P receptor (Homo sapiens, UniProt P25103)
Test: Binding affinity was carried out with NK 1 receptors from U-373MG human astrocytoma cell line
Format: cell-based
Details: u-373mg atcc

Chain of Substance-P receptor (P25103 whole entry): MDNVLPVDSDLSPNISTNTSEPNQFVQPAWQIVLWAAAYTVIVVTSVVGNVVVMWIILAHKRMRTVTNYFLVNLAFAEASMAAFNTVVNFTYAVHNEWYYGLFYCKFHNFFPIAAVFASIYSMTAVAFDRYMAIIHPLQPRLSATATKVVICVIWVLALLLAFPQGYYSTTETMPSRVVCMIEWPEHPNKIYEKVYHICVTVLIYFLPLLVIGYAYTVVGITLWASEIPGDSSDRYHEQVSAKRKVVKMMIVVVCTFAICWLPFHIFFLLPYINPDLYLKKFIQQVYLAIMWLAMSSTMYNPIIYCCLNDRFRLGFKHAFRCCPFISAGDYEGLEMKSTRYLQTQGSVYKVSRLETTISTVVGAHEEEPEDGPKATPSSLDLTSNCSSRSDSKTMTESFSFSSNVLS

Log Ki | Compound
< -7 | C=C1CN2CCC[C@H](NCc3ccccc3OC)[C@@]2(c2ccccc2)C1
< -7 | COc1ccccc1CN[C@H]1CCCN2CCC[C@]12c1ccccc1
